Measured values from patent US12497666B2, “Nucleic acid biomarker and use thereof” (Daiichi Sankyo Co., Ltd., priority 2013, dated 2025).
Read-outs that look alike come from different tables or passages of the source.

Tests used:
[1] = tested on: Stage IIIb/IV NSCLC
Procedure: (§1) In both portions of the study, subjects received 150 mg of erlotinib orally once daily. […] Tumors were to be assessed every 6 weeks (±3 days) up to the first 24 weeks of the study, then every 12 weeks (+7 days) independent of treatment cycle.
Subjects were also administered 150 mg/day erlotinib during the phase 2 trial.

[2] = tested on: Stage IIIb/IV NSCLC; conditions: for On-Study Death / Primary Cause of On-Study Death: Adverse Event / Primary Cause of On-Study Death: Disease Progression / Primary Reason for Discontinuing Study Treatment: Death / Primary Reason for Discontinuing Study Treatment: Progressive Disease (Radiographic Progression): Enrolled/Randomized set; for disease control rate / objective response (CR or PR): HRG high
Procedure: as §1
All efficacy analyses were performed on the full analysis set, which includes all subjects in the randomized analysis set who received at least one dose of randomized study medication. The primary efficacy endpoint was PFS. PFS is defined as the time from the date of randomization to the earlier of the dates of the first objective documentation of radiographic disease progression or death due to any cause. A subject who was alive with no Objective documentation of (radiographic) disease progression by the data cut-off date was to be censored at the date of the last evaluable tumor assessment. The key secondary efficacy endpoint, overall survival, was defined as the time from the date of randomization to death due to any cause and was analyzed in the same manner as the primary efficacy endpoint PFS.
Kaplan-Meier curves were generated for PFS and used to calculate medians and 95% CIs for each treatment group. […] Cox's proportional hazards model.
The stratification factors included histology (Adenocarcinoma vs Non-Adenocarcinoma) and best response to prior therapy (CR/PR/SD vs PD).
Unless otherwise indicated, log-rank p-values and HRs for PFS and OS were based on the primary analysis adjusted for the stratification factors at randomization as described above.

[3] = 18 mg/kg patritumab + erlotinib
[4] = Full Analysis Set, 9 mg/kg patritumab + erlotinib
[5] = Full Analysis Set, 18 mg/kg patritumab + erlotinib
[6] = Full Analysis Set, Kaplan-Meier, 9 mg/kg patritumab + erlotinib
[7] = Full Analysis Set, Kaplan-Meier, 18 mg/kg patritumab + erlotinib
[8] = HRG high (dCt<3.9), 9 mg/kg patritumab + erlotinib
[9] = HRG high (dCt<3.9), 18 mg/kg patritumab + erlotinib
[10] = HRG high (dCt<3.9), patritumab doses combined + erlotinib
[11] = HRG high and EGFR wild type, 9 mg/kg patritumab + erlotinib
[12] = HRG high and EGFR wild type, 18 mg/kg patritumab + erlotinib
[13] = HRG high and EGFR wild type, patritumab doses combined + erlotinib
[14] = HRG low, 9 mg/kg patritumab + erlotinib
[15] = HRG low, 18 mg/kg patritumab + erlotinib
[16] = HRG low, patritumab doses combined + erlotinib
[17] = Full Analysis Set, Kaplan-Meier, placebo + erlotinib
[18] = Full Analysis Set, placebo + erlotinib
[19] = HRG high (dCt<3.9), placebo + erlotinib
[20] = HRG high and EGFR wild type, placebo + erlotinib

Substance: patritumab + erlotinib: combination of 150 mg erlotinib daily and anti-HER3 antibody patritumab IV every 3 weeks (18 mg/kg, or 18 mg/kg loading with 9 mg/kg maintenance)
- response ([1]; Phase 1b, 7 subjects): No response was recorded
- grade of reported AEs ([1]; in vivo): Most reported AEs were grade 1 or 2
- patritumab-related AE: decreased appetite ([1]; in vivo): 2 subjects
- serious AEs ([1]; in vivo): Three subjects had four serious AEs
- HR (pooled dose vs placebo) for PFS in the HRG high group ([2]; Cut-off for delta Ct 2.7 (first quartile)): 0.180
- HR (pooled dose vs placebo) for PFS in the HRG high group ([2]; Cut-off for delta Ct 3.0): 0.177
- HR (pooled dose vs placebo) for PFS in the HRG high group ([2]; Cut-off for delta Ct 3.5): 0.283
- HR (pooled dose vs placebo) for PFS in the HRG high group ([2]; Cut-off for delta Ct 3.9 (median)): 0.324
- HR (pooled dose vs placebo) for PFS in the HRG high group ([2]; Cut-off for delta Ct 4.5): 0.490
- HR (pooled dose vs placebo) for PFS in the HRG high group ([2]; Cut-off for delta Ct 5.0 (third quartile)): 0.561
- On-Study Death ([2]; 9 mg/kg patritumab + erlotinib): 9 (12.5%) subjects (%)
- Primary Cause of On-Study Death: Adverse Event ([2]; 9 mg/kg patritumab + erlotinib): 4 (5.6%) subjects (%)
- Primary Cause of On-Study Death: Disease Progression ([2]; 9 mg/kg patritumab + erlotinib): 4 (5.6%) subjects (%)
- Primary Reason for Discontinuing Study Treatment: Death ([2]; 9 mg/kg patritumab + erlotinib): 2 (2.8%) subjects (%)
- Primary Reason for Discontinuing Study Treatment: Progressive Disease (Radiographic Progression) ([2]; 9 mg/kg patritumab + erlotinib): 45 (62.5%) subjects (%)
- On-Study Death [2, 3]: 20 (27.8%) subjects (%)
- Primary Cause of On-Study Death: Adverse Event [2, 3]: 11 (15.3%) subjects (%)
- Primary Cause of On-Study Death: Disease Progression [2, 3]: 8 (11.1%) subjects (%)
- Primary Reason for Discontinuing Study Treatment: Death [2, 3]: 11 (15.3%) subjects (%)
- Primary Reason for Discontinuing Study Treatment: Progressive Disease (Radiographic Progression) [2, 3]: 42 (58.3%) subjects (%)
- Subjects (%) with events, OS [2, 4]: 46 (64.8%) subjects (%)
- Subjects (%) with events, PFS [2, 4]: 52 (73.2%) subjects (%)
- Subjects (%) with events, OS [2, 5]: 54 (77.1%) subjects (%)
- Subjects (%) with events, PFS [2, 5]: 58 (82.9%) subjects (%)
- Overall Survival, time to event, Median [2, 6]: 6.3 months
- Progression-Free Survival, time to event, Median [2, 6]: 2.5 months
- Overall Survival, time to event, Median [2, 7]: 5.3 months
- Progression-Free Survival, time to event, Median [2, 7]: 1.4 months
- number of subjects with the response being CP/PR ([2]; Full Analysis Set, high-dose patritumab + erlotinib): 5 (7.1%) subjects (%)
- number of subjects with the response being CP/PR ([2]; Full Analysis Set, low-dose patritumab + erlotinib): 9 (12.9%) subjects (%)
- OS Rate at 1 Year (%) [2, 8]: 49.2%
- OS Rate at 6 Months (%) [2, 8]: 68.8%
- OS Rate at 9 Months (%) [2, 8]: 56.3%
- PFS Rate at 8 Weeks (%) [2, 8]: 67.7%
- PFS Rate at 14 Weeks (%) [2, 8]: 33.9%
- PFS Rate at 26 Weeks (%) [2, 8]: 20.3%
- Progression-Free Survival, time to event, Median [2, 8]: 3.0 months
- Subjects (%) with events, OS [2, 8]: 9 (56.3%) subjects (%)
- Subjects (%) with events, PFS [2, 8]: 12 (75.0%) subjects (%)
- OS Rate at 1 Year (%) [2, 9]: 22.2%
- OS Rate at 6 Months (%) [2, 9]: 50.7%
- OS Rate at 9 Months (%) [2, 9]: 44.3%
- PFS Rate at 8 Weeks (%) [2, 9]: 56.3%
- PFS Rate at 14 Weeks (%) [2, 9]: 50.0%
- PFS Rate at 26 Weeks (%) [2, 9]: 15.6%
- Progression-Free Survival, time to event, Median [2, 9]: 3.4 months
- Subjects (%) with events, OS [2, 9]: 12 (70.6%) subjects (%)
- Subjects (%) with events, PFS [2, 9]: 13 (76.5%) subjects (%)
- OS Rate at 1 Year (%) [2, 10]: 35.8%
- OS Rate at 6 Months (%) [2, 10]: 59.6%
- OS Rate at 9 Months (%) [2, 10]: 50.2%
- PFS Rate at 8 Weeks (%) [2, 10]: 62.1%
- PFS Rate at 14 Weeks (%) [2, 10]: 42.5%
- PFS Rate at 26 Weeks (%) [2, 10]: 18.4%
- Progression-Free Survival, time to event, Median [2, 10]: 3.0 months
- Subjects (%) with events, OS [2, 10]: 21 (63.6%) subjects (%)
- Subjects (%) with events, PFS [2, 10]: 25 (75.8%) subjects (%)
- Overall Survival, time to event, Median ([2]; HRG high (dCt<3.9), preliminary, 9 mg/kg patritumab + erlotinib): 10.6 months
- Overall Survival, time to event, Median ([2]; HRG high (dCt<3.9), preliminary, 18 mg/kg patritumab + erlotinib): 6.1 months
- Overall Survival, time to event, Median ([2]; HRG high (dCt<3.9), preliminary, patritumab doses combined + erlotinib): 9.7 months
- Progression-Free Survival, time to event, Median [2, 11]: 2.8 months
- Subjects (%) with events, PFS [2, 11]: 6 ( 85.7%) subjects (%)
- Progression-Free Survival, time to event, Median [2, 12]: 2.8 months
- Subjects (%) with events, PFS [2, 12]: 5 (100.0%) subjects (%)
- Progression-Free Survival, time to event, Median [2, 13]: 2.8 months
- Subjects (%) with events, PFS [2, 13]: 11 (91.7%) subjects (%)
- disease control rate ([2]; 9 mg/kg patritumab plus erlotinib): 62.5%
- disease control rate ([2]; 18 mg/kg patritumab plus erlotinib): 52.9%
- objective response (CR or PR) ([2]; high-dose patritumab + erlotinib): No subject
- objective response (CR or PR) ([2]; low-dose patritumab + erlotinib): 4 (25.0%) subjects (%)
- Overall Survival, time to event, Median [2, 14]: 6.3 months
- Progression-Free Survival, time to event, Median [2, 14]: 2.1 months
- Subjects (%) with events, OS [2, 14]: 10 ( 66.7%) subjects (%)
- Subjects (%) with events, PFS [2, 14]: 12 ( 80.0%) subjects (%)
- Overall Survival, time to event, Median [2, 15]: 9.6 months
- Progression-Free Survival, time to event, Median [2, 15]: 1.4 months
- Subjects (%) with events, OS [2, 15]: 12 ( 63.2%) subjects (%)
- Subjects (%) with events, PFS [2, 15]: 13 ( 68.4%) subjects (%)
- Overall Survival, time to event, Median [2, 16]: 9.3 months
- Progression-Free Survival, time to event, Median [2, 16]: 1.9 months
- Subjects (%) with events, OS [2, 16]: 22 ( 64.7%) subjects (%)
- Subjects (%) with events, PFS [2, 16]: 25 ( 73.5%) subjects (%)
- improvement in PFS or OS as compared to erlotinib plus placebo ([2]; full analysis set): no significant improvement in PFS or OS
- treatment difference in PFS and OS ([2]; subjects with tumors expressing low levels of HRG (dCt>3.9)): no clear treatment difference in PFS and OS

Substance: erlotinib [Placebo + erlotinib, reference compound]
- On-Study Death ([2]; placebo + erlotinib): 13 (18.3%) subjects (%)
- Primary Cause of On-Study Death: Adverse Event ([2]; placebo + erlotinib): 5 (7.0%) subjects (%)
- Primary Cause of On-Study Death: Disease Progression ([2]; placebo + erlotinib): 8 (11.3%) subjects (%)
- Primary Reason for Discontinuing Study Treatment: Death ([2]; placebo + erlotinib): 4 (5.6%) subjects (%)
- Primary Reason for Discontinuing Study Treatment: Progressive Disease (Radiographic Progression) ([2]; placebo + erlotinib): 50 (70.4%) subjects (%)
- Overall Survival, time to event, Median [2, 17]: 7.2 months
- Progression-Free Survival, time to event, Median [2, 17]: 1.6 months
- Subjects (%) with events, OS [2, 18]: 48 (67.6%) subjects (%)
- Subjects (%) with events, PFS [2, 18]: 59 (83.1%) subjects (%)
- number of subjects with the response being CP/PR [2, 18]: 4 (5.6%) subjects (%)
- OS Rate at 1 Year (%) [2, 19]: 32.4%
- OS Rate at 6 Months (%) [2, 19]: 49.4%
- OS Rate at 9 Months (%) [2, 19]: 49.4%
- PFS Rate at 8 Weeks (%) [2, 19]: 31.3%
- PFS Rate at 14 Weeks (%) [2, 19]: 18.8%
- PFS Rate at 26 Weeks (%) [2, 19]: 0.0%
- Progression-Free Survival, time to event, Median [2, 19]: 1.4 months
- Subjects (%) with events, OS [2, 19]: 11 (61.1%) subjects (%)
- Subjects (%) with events, PFS [2, 19]: 16 (88.9%) subjects (%)
- Overall Survival, time to event, Median ([2]; HRG high (dCt<3.9), preliminary, placebo + erlotinib): 5.0 months
- Progression-Free Survival, time to event, Median [2, 20]: 1.4 months
- Subjects (%) with events, PFS [2, 20]: 8 ( 88.9%) subjects (%)
- objective response (CR or PR) ([2]; placebo + erlotinib): 1 (5.6%) subjects (%)
- disease control rate ([2]; placebo plus erlotinib): 22.2%
- Overall Survival, time to event, Median ([2]; HRG low, placebo + erlotinib): 8.0 months
- Progression-Free Survival, time to event, Median ([2]; HRG low, placebo + erlotinib): 1.4 months
- Subjects (%) with events, OS ([2]; HRG low, placebo + erlotinib): 11 (68.8%) subjects (%)
- Subjects (%) with events, PFS ([2]; HRG low, placebo + erlotinib): 13 ( 81.3%) subjects (%)
